Assays:
NMNAT1−/− RPE-1 cells = test: Survival assay with PARP inhibitor; assay type: cell-based; details: versus WT RPE-1; FIG. 1g
Description: FIG. 1: a, Quantification (left) and representative images (right) of clonogenic formation of wild type (WT) and BRCA2^−/− (clones C1 and C2) RPE-1 cells with and without BRCA2 cDNA complementation, after transfection with the indicated NMNAT1 siRNAs. b, Clonogenic formation (left) and WB-analysis (right) of BRCA2 mAID HeLa cells in the presence or absence of auxin (IAA) after transduction with viral particles carrying NMNAT1 shRNA or control. c, Clonogenic formation of WT and BRCA1^−/− RPE-1 cells after transfection with siNMNAT1 #2. d, Clonogenic formation of WT and NMNAT1^−/− RPE-1 cells after transfection with the indicated BRCA1/2 siRNAs. e, Quantification (left) and representative images (right) of clonogenic formation of the indicated HR-proficient and HR-deficient cells upon siNMNAT1. f, DNA damage quantification by alkaline COMET assay of P53−/− RPE-1 cells in the presence or absence of NMNAT1. g, Survival assay of WT and NMNAT1^−/− RPE-1 cells exposed to the indicated doses of the PARP inhibitor rucaparib (PARPi).
Accumulation of DNA lesions can result in increased sensitivity to genotoxic drugs. Given that NMNAT1 functions upstream of PARP1 by providing NAD^+, the reduced PARP1 activity upon NMNAT1 loss might account for the observed synthetic lethality between NMNAT1 and BRCA.

[1] = system: PARPi-resistant OVCAR8 xenografts; test: PARPi-resistant xenograft tumor growth and survival; assay type: in vivo, athymic nude mice; details: versus vehicle; FIG. 6A
Description: FIG. 6: NMNAT1 inhibition kills PARPi-resistant HRD tumors in vivo. A. Growth (relative tumor volume, RTV) of parental and PARPi-resistant OVCAR8 xenografts in vivo upon PARPi (rucaparib) or vehicle treatment. B, Growth (relative tumor volume, RTV) of PARPi-resistant OVCAR8 xenografts in vivo. C, Relative tumour volumes (RTV) for individual mice treated in B after five weeks of treatment. D, Overall survival for mice bearing PARPi-resistant OVCAR8 xenografts treated with vehicle or doxycycline. For data shown in FIG. 6, the PARPi-resistant OVCAR8 cells were xenotransplanted subcutaneously in athymic nude mice. Doxycycline was supplemented in the food (625 p.p.m.).
To translate these findings into a translational setting, the inventors derived a PARPi-resistant clone from the PARPi-naive BRCA1-deficient OVCAR8 lines, expressed either doxycycline-inducible NMNAT1 or scrambled (Scr) shRNA in these cells, and xenograft them in athymic nude mice.
As expected the OVCAR8 PARPi-resistant cells were resistant to the PARPi rucaparib in vivo (FIG. 6A).

With `CNCc1ccc(-c2[nH]c3cc(F)cc4c3c2CCNC4=O)cc1` [rucaparib] the “sensitivity to PARP inhibitor (survival)” value (NMNAT1−/− RPE-1 cells) was “sensitized” and the “response of tumor to PARPi in vivo” value [1] was “resistant”.

From patent US20250019708A1, “METHODS FOR THE TREATMENT OF HRD CANCER AND BRCA-ASSOCIATED CANCER” (INSTITUT CURIE, priority 2021, published 2025)
